Reference: patent publication US20100029643A1 (ASTRAZENECA AB, priority 2006, published 2010)

target: T1, Edg-1/S1P1 receptor (Homo sapiens, UniProt P21453); assay: In vitro cell based receptor activation assay - Transfluor assay (assay I or II; beta-arrestin GFP relocalization after S1P stimulation); settings: at 3.30 μM (run with this as top concentration)
T1 construct: expressed in transfected cells; host or cells: human osteogenic sarcoma U2OS cells: Edg-1 Transfluor U2OS WT Clone #37 (assay I), Edg-1 Transfluor U2OS Clone #3 (assay II)
T1 sequence (P21453 whole entry): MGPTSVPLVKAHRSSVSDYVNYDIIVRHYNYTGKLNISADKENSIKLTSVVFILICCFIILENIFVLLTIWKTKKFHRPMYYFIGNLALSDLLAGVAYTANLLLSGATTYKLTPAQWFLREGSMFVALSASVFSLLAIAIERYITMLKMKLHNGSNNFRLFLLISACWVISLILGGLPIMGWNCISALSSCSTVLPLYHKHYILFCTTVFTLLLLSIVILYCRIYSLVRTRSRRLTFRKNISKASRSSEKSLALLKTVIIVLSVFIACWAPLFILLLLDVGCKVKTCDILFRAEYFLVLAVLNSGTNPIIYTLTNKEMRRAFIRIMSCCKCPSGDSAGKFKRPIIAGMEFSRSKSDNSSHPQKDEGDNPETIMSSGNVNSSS
Procedure, shortened: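 U2OS cells overexpressing S1P1 with a beta-arrestin-GFP construct were pre-incubated with compound for 15 min at room temperature, then stimulated with S1P for 45 min at 37 °C. In assay I, final S1P was 375 nM or 750 nM and compound was a 9-point 3-fold series from 100 μM, in 1% DMSO. Cells were fixed and Hoechst-stained, GFP relocalization was imaged, and EC50 values were fitted.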

Work on `CCCn1c(C(C)NS(=O)(=O)c2ccc(Cl)cc2)nc2ccccc21` (stereo not shown) [Example 17, 4-Chloro-N-[1-(1-propyl-1H-benzimidazol-2-yl)ethyl]-benzenesulfonamide] yielded an inhibition at 3.3 µM of 92.8%.

same assay, conditions: at 3.50 μM (titrated from top concentration 10 μM)

Going from `CCn1c([C@@H](C)NS(=O)(=O)c2ccc(C#N)cc2)nc2cnc(C3CC3)cc21` (stereo in doubt) [Example 183, 4-Cyano-N-[1-(6-cyclopropyl-1-ethyl-1H-imidazo[4,5-c]pyridin-2-yl)-ethyl]-benzenesulfonamide] to `CCn1c([C@@H](C)NS(=O)(=O)c2ccc(C#N)nc2)nc2cnc(OC)cc21` [Example 151, (R)-6-Cyano-N-(1-(1-ethyl-6-methoxy-1H-imidazo[4,5-c]pyridin-2-yl)ethyl)pyridine-3-sulfonamide], the inhibition at 3.5 µM rises from 83.4% to 91.7%.

Going from `CCn1c([C@@H](C)NS(=O)(=O)c2cnc(NN)c(Cl)c2)nc2ccc(C(F)(F)F)cc21` [Example 128, R-5-chloro-N-(1-(1-ethyl-6-(trifluoromethyl)-1H-benzo[d]imidazol-2-yl)ethyl)-6-hydrazinylpyridine-3-sulfonamide] to `CCn1c([C@@H](C)NS(=O)(=O)c2ccc(C#N)nc2)nc2cnc(C(F)(F)F)cc21` [Example 148, (R)-6-Cyano-N-(1-(1-ethyl-6-(trifluoromethyl)-1H-imidazo[4,5-c]pyridin-2-yl)ethyl)pyridine-3-sulfonamide], the inhibition at 3.5 µM falls from 94.5% to 93%.

For `CCC(NS(=O)(=O)c1ccc(Cl)cc1)c1nc2ccccc2n1CC` (stereo not shown) [Example 2, 4-Chloro-N-[1-(1-ethyl-1H-benzoimidazol-2-yl)propyl]-benzenesulfonamide], the inhibition at 3.5 µM was 94%.

same assay, conditions: at 3.70 μM (titrated from top concentration 100 μM)

Compared with `CCn1c([C@@H](C)NS(=O)(=O)c2ccc(Cl)cc2)nc2ccc(C(N)=O)cc21` [Example 71, 2-(1-{[(4-Chlorophenyl)sulfonyl]amino}-ethyl)-1-ethyl-1H-benz-imidazole-6-carboxamide], `CCn1c([C@@H](C)NS(=O)(=O)c2ccc(Cl)cc2)nc2cc(CO)ccc21` [Example 78, 4-Chloro-N-{(1R)-1-[1-ethyl-5-(hydroxymethyl)-1H-benzimidazol-2-yl]ethyl}benzenesulfonamide] is lower in inhibition at 3.7 µM: 77.3% for the first, 58.4% for the second.

Going from `CCn1c([C@@H](C)NS(=O)(=O)c2ccc(Cl)cc2)nc2ccc(CN(C)C)cc21` [Example 74, 4-Chloro-N-((1R)-1-{6-[(dimethylamino)methyl]-1-ethyl-1H-benzimidazol-2-yl}ethyl)benzenesulfonamide] to `CCn1c(C(Cc2cccnc2)NS(=O)(=O)c2ccc(Cl)cc2)nc2ccccc21` (stereo not shown) [Example 7, 4-Chloro-N-[1-(1-ethyl-1H-benzimidazol-2-yl)-2-pyridin-3-yl-ethyl]benzene-sulfonamide], the inhibition at 3.7 µM rises from 30.4% to 79.7%.
